Assay results published in a melting point compilation (Tetko et al.; mined from patent text by program, amines drawn as free bases though some values may be those of a salt).

SMILES | melting point [°C]
COc1cccc([C@@H](c2ccc(C3CN(CCC(=O)O)C3)cc2)N2C[C@@H](C)N(Cc3ccccc3)C[C@@H]2C)c1 | 93 to 96
CC(=O)Nc1ccc([C@@H]2CO2)cn1 | 96 to 98
N#CNc1cc(F)ccc1-c1ccccc1 | 68 to 70
CC(CC(=O)OCc1ccccc1)NC(=O)CCNC(=O)OC(C)(C)C (stereo not given) | 70 to 72
CCOC(=O)CN1C(=O)C2=C(c3ccccc3)N(CC(=O)OCC)C(=O)C2=C1c1ccccc1 | 204 to 208
N#Cc1cc(F)c(-n2ncc(=O)[nH]c2=O)cc1F | > 250
Cc1nnc(S(C)(=O)=O)o1 | 70 to 71
Cc1ccc(S(=O)(=O)OCC2CCc3cc(C#N)ccc3C2)cc1 (stereo not given) | 100 to 102
CCCCC1c2cc(NC(=O)CC(C)(C)C)c(C)c(C)c2OC1(C)C (stereo not given) | 129 to 130
CC(C)Cn1nc(C(=O)c2cccc(O)c2)c2ccccc21 | 108 to 110
OCc1ccc2cc(CO)ccc2c1 | 171 to 172
CCN1C(=O)C(C)(C)C(=O)N(C)c2cc(CN(CCn3cc(C)c4occc4c3=O)Cc3ncccc3N)ccc21 | 188 to 192
CCOc1ccc(S(=O)(=O)N2CCN(C)CC2)cc1-c1nc2c(COC)nn(C)c2c(=O)[nH]1 | 198 to 199
C[C@H](NS(=O)(=O)c1ccc2c(Cl)cnc(Cl)c2c1)C(=O)OC(C)(C)C | 115 to 119
CCOC(=O)CNC(=S)Cc1cnc(C)c2c1COC(C)(C)O2 | 156 to 158
CC1CS(=O)C(c2cccs2)=NO1 (stereo not given) | 114 to 115
CCOC(=O)c1nc(-c2ccc([N+](=O)[O-])cc2)[nH]c1-c1ccc(OCC)cc1 | 214 to 217
COc1ccc2c(Nc3ccc4[nH]ccc4c3)c(C#N)cnc2c1 | > 250
CCCc1c(OCCCSc2ccc(CC(=O)O)c(Cl)c2Cl)ccc(C(C)=O)c1O | 119 to 122
COC(C)=CC(=O)Nc1cccc(OC(=O)NC(C)C)c1 | 210
N#CNc1nccc(Oc2ccc(NC(=O)c3cc(F)cc(N4CCCCC4)c3)c3ccccc23)n1 | 160 to 162
CC(=O)Nc1cc(F)ccc1C | 127 to 128
Cc1cc(OCc2ccccc2)cc(NC(=O)OC(C)C)c1C(=O)O | 137 to 139
Cc1ccc2c(Sc3cc(Cl)cc(Cl)c3)c(CCCC(N)=O)[nH]c2c1 | 163 to 164
O=C1Nc2cc(Cl)ccc2Nc2cscc21 | 212 to 213

SMILES | melting point [°C]
c1ccc(CN2CCN(c3ccnc4[nH]ccc34)CC2)cc1 | 175
COc1ccc(C(CC(=O)O)N2Cc3ccccc3C2=O)cc1OC (stereo not given) | 146 to 148
O=C(C=CC=Cc1ccccc1)C=Cc1ccc([N+](=O)[O-])cc1 | 168 to 170
Nc1cc(=O)n(Cc2ccccc2Cl)[nH]1 | 153
Cc1cc(Oc2ccc(NC(=O)Nc3ccc(N(CCCl)CCCl)cc3)cc2)c2cc3c(cc2n1)OCO3 | 217 to 218
O=c1[nH]c2ccccc2n1C1=CCN(C2CCC(c3ccc(F)cc3)(c3ccc(F)cc3)CC2)CC1 | 235 to 238
COc1ccc(C(=O)Nc2ccccc2)cc1NS(=O)(=O)c1ccc([N+](=O)[O-])cc1 | 224 to 227
CC1CC(=O)NN=C1c1ccc2c(c1)Oc1c[nH]nc1N2 (stereo not given) | 304 to 306
CN(C)C(=O)c1c(S(N)(=O)=O)ccn1C | 185 to 190
Cc1ccc2oc3ccc(C)cc3c2c1 | 62 to 64
O=CNN(C1=NCCS1)c1ccccc1 | 140 to 141
COC(=O)COc1ccc2c(O)c(C(C)=O)ccc2c1 | 118 to 120
CCCCc1ncc(/C=C/CC(=O)O)n1Cc1ccccc1Cl | 135 to 137
O=C(O)COc1c(F)ccc(-c2c3ccccc3c(Br)c3sc4ccccc4c23)c1F | 195 to 197
Cc1cccc(C(=O)NN=Cc2ccc3ccccc3n2)c1 | 188
FC(F)(F)c1ccc(-c2cc(C(F)(F)F)n3ncc(-c4ccccn4)c3n2)cc1 | 202
Cc1nc(N2CCN(Cc3cccc(C(=O)O)c3)C2=O)sc1C(=O)NCc1ccccc1 | 120 to 123
CNc1ncnc2c1ncn2C1OC(CO)C(OC)C1(C)O (stereo not given) | 165
COc1ccc(SC(C(=O)NO)C(C)C)cc1 (stereo not given) | 119
Nc1ccc(C2(C(=O)O)CC2C(=O)O)cc1 (stereo not given) | 154 to 155
CCOC(=O)C1Cc2c([nH]c3ccccc23)CN1C(=S)SC (stereo not given) | 139 to 141
CC(C)(C)c1ccc(C(=O)NC(=N)N)cc1 | 255 to 258
NC(=O)CCCCCNC(N)=O | 208
CC(C)C[C@H](NC(=O)OC(C)(C)C)[C@@H](O)C[C@H](c1ccccc1)C(C)C | 95 to 96
CC(C)(C)c1ccc(CCC(C=O)CC2CCCCC2)cc1NC(=O)CC1c2ccccc2Oc2ccccc21 (stereo not given) | 117 to 118
